From ChEMBL document CHEMBL6103537 (J Med Chem, 2025)
Activity calls are given as the source filed them. The rule behind the calls is not given here.

How the values were obtained:
[1] = target: T1, Protein cereblon/Signal transducer and activator of transcription 6 (Homo sapiens, UniProt P42226+Q96SW2); assay: PROTAC activity at STAT6/CRBN in human MV4-11 cells assessed as reduction in STAT6 level at 5 uM incubated for 12 hrs by Western blot analysis relative to control; format: cell-based
Target sequence in this assay (P42226 2-847 limits assumed): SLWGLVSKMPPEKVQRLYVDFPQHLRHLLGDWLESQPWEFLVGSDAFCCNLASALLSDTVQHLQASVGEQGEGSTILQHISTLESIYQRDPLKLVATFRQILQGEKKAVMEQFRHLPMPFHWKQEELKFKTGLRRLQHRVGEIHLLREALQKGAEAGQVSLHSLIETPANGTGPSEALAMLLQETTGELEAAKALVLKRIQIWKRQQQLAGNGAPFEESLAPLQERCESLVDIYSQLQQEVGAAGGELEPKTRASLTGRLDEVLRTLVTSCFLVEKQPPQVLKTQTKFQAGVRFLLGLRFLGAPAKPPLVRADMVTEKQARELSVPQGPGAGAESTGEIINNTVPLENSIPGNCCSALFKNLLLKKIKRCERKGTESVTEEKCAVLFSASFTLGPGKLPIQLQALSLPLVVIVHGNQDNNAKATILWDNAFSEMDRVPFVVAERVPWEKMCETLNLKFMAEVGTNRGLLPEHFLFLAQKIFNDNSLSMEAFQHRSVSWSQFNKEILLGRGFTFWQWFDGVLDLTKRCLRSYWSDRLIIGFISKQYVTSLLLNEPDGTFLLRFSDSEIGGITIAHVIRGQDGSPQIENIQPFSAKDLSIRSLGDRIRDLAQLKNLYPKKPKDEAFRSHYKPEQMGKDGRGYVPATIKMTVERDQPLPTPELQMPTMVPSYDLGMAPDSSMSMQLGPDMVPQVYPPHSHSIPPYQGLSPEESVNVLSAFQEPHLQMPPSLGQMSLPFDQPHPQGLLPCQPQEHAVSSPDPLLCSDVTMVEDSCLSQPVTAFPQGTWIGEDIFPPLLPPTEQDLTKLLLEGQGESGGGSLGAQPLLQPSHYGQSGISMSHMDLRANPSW
Target sequence in this assay (Q96SW2 whole entry partner): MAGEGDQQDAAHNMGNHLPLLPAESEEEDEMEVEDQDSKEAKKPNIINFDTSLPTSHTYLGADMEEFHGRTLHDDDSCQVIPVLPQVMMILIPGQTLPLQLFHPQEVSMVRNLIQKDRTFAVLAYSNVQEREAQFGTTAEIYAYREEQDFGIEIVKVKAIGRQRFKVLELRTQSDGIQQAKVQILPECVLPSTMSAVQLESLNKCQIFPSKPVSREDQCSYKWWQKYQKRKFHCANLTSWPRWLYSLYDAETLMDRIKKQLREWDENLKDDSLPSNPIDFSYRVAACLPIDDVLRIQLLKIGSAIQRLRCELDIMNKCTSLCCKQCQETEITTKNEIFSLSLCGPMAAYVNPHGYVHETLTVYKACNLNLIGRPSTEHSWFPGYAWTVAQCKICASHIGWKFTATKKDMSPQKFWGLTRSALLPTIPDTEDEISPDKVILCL

[2] = target: Protein cereblon/Signal transducer and activator of transcription 5A/Signal transducer and activator of transcription 5B (Homo sapiens) (UniProt P42229+P51692+Q96SW2); assay: PROTAC activity at STAT5/CRBN in human MV4-11 cells assessed as reduction in STAT5 level at upto 10 uM incubated for 12 hrs by Western blot analysis; format: cell-based
[3] = target: Protein cereblon/Signal transducer and activator of transcription 4 (Homo sapiens) (UniProt Q96SW2+Q14765); assay: PROTAC activity at STAT4/CRBN in human MV4-11 cells assessed as reduction in STAT4 level at 10 uM incubated for 12 hrs by Western blot analysis; format: cell-based
[4] = target: T1, Protein cereblon/Signal transducer and activator of transcription 6; assay: PROTAC activity at STAT6/CRBN in human PBMC cells assessed as reduction in STAT6 level incubated for 18 hrs by Western blot analysis; format: cell-based
[5] = target: Protein cereblon/Signal transducer and activator of transcription 1-alpha/beta (Homo sapiens) (UniProt P42224+Q96SW2); assay: PROTAC activity at STAT1/CRBN in human PBMC cells assessed as reduction in STAT1 level at 10 uM incubated for 18 hrs by Western blot analysis relative to control; format: cell-based
[6] = target: Protein cereblon/Signal transducer and activator of transcription 3 (Homo sapiens) (UniProt P40763+Q96SW2); assay: PROTAC activity at STAT3/CRBN in human PBMC cells assessed as reduction in STAT3 level at 10 uM incubated for 18 hrs by Western blot analysis relative to control; format: cell-based
[7] = target: T1, Protein cereblon/Signal transducer and activator of transcription 6; assay: PROTAC activity at STAT6/CRBN in human L-1236 cells assessed as reduction in STAT6 level incubated for 24 hrs by Western blot analysis; format: cell-based; settings: dose 10.0 µM
Target sequence in this assay (P42226 2-847 limits assumed): as the sequence (P42226 2-847 limits assumed) above
Target sequence in this assay (Q96SW2 whole entry partner): as the sequence (Q96SW2 whole entry partner) above

[8] = target: T1, Protein cereblon/Signal transducer and activator of transcription 6; assay: PROTAC activity at STAT6/CRBN in human L-1236 cells assessed as reduction in STAT6 level at 10 uM incubated for 24 hrs by Western blot analysis; format: cell-based
Target sequence in this assay (P42226 2-847 limits assumed): as the sequence (P42226 2-847 limits assumed) above
Target sequence in this assay (Q96SW2 whole entry partner): as the sequence (Q96SW2 whole entry partner) above

[9] = Downregulation of EPB41L1 level in human PBMC cells at 5 uM incubated for 18 hrs by Western blot analysis relative to control; format: functional
[10] = Downregulation of KRT1 level in human PBMC cells at 5 uM incubated for 18 hrs by Western blot analysis relative to control; format: functional
PBMC = assay: Downregulation of STAT4 level in human PBMC cells at 5 uM incubated for 18 hrs by Western blot analysis relative to control; format: functional, cell-based
[11] = target: T1, Protein cereblon/Signal transducer and activator of transcription 6; assay: PROTAC activity at STAT6/CRBN in human MV4-11 cells assessed as reduction in STAT6 level at 2 uM measured upto 1200 mins in presence of lenalidomide by HiBiT bioluminescence assay; format: cell-based; settings: Jurkat
Target sequence in this assay (P42226 2-847 limits assumed): as the sequence (P42226 2-847 limits assumed) above
Target sequence in this assay (Q96SW2 whole entry partner): as the sequence (Q96SW2 whole entry partner) above

[12] = target: T1, Protein cereblon/Signal transducer and activator of transcription 6; assay: PROTAC activity at STAT6/CRBN in human MV4-11 cells assessed as reduction in STAT6 level at 2 uM measured upto 1200 mins in presence of […] by HiBiT bioluminescence assay; format: cell-based
Target sequence in this assay (P42226 2-847 limits assumed): as the sequence (P42226 2-847 limits assumed) above
Target sequence in this assay (Q96SW2 whole entry partner): as the sequence (Q96SW2 whole entry partner) above

[13] = target: Protein cereblon/Zinc finger protein Aiolos (Homo sapiens) (UniProt Q96SW2+Q9UKT9); assay: PROTAC activity at CRBN/IKZF3 in human Jurkat cells assessed as degradation of IKZF3 protein at 0.01 to 10 uM incubated for 20 hrs by Western blotting analysis; format: cell-based; settings: dose 0.01-10 µM
[14] = target: Protein cereblon/Eukaryotic peptide chain release factor GTP-binding subunit ERF3A (Homo sapiens) (UniProt Q96SW2+P15170); assay: PROTAC activity at CRBN/GSPT1 in human Jurkat cells assessed as degradation of GSPT1 protein at 0.01 to 10 uM incubated for 20 hrs by Western blotting analysis; format: cell-based; settings: dose 0.01-10 µM
[15] = Metabolic stability in human liver microsome assessed as parent compound remaining measured at 5 mins in presence of NADPH by LC-MS/MS analysis; format: ADME; settings: liver microsomes, read-out: Stability
[16] = Metabolic stability in human liver microsome assessed as parent compound remaining measured at 15 mins in presence of NADPH by LC-MS/MS analysis; format: ADME; settings: liver microsomes, read-out: Stability
[17] = Metabolic stability in dog liver microsome assessed as parent compound remaining measured at 30 mins in presence of NADPH by LC-MS/MS analysis; format: ADME, Canis lupus familiaris; settings: liver microsomes, read-out: Stability
[18] = Metabolic stability in monkey liver microsome assessed as parent compound remaining measured at 30 mins in presence of NADPH by LC-MS/MS analysis; format: ADME, Macaca mulatta; settings: rhesus monkey, liver microsomes, read-out: Stability
[19] = Metabolic stability in rat liver microsome assessed as parent compound remaining measured at 45 mins in presence of NADPH by LC-MS/MS analysis; format: ADME; settings: liver microsomes, read-out: Stability
[20] = Metabolic stability in mouse liver microsome assessed as parent compound remaining measured at 5 mins in presence of NADPH by LC-MS/MS analysis; format: ADME; settings: liver microsomes, read-out: Stability
[21] = Stability in human plasma assessed as parent compound remaining measured at 5 mins by LC-MS/MS analysis; format: ADME, cell-free; settings: read-out: Stability
[22] = Stability in human plasma assessed as parent compound remaining measured at 15 mins by LC-MS/MS analysis; format: ADME, cell-free; settings: read-out: Stability
[23] = Stability in human plasma assessed as parent compound remaining measured at 120 mins by LC-MS/MS analysis; format: ADME, cell-free; settings: read-out: Stability
[24] = Stability in dog plasma assessed as parent compound remaining measured at 5 mins by LC-MS/MS analysis; format: ADME, cell-free, Canis lupus familiaris; settings: read-out: Stability
[25] = Stability in dog plasma assessed as parent compound remaining measured at 30 mins by LC-MS/MS analysis; format: ADME, cell-free, Canis lupus familiaris; settings: read-out: Stability
[26] = Stability in dog plasma assessed as parent compound remaining measured at 60 mins by LC-MS/MS analysis; format: ADME, cell-free, Canis lupus familiaris; settings: read-out: Stability
[27] = Stability in monkey plasma assessed as parent compound remaining measured at 5 mins by LC-MS/MS analysis; format: ADME, cell-free, Macaca mulatta; settings: rhesus monkey, read-out: Stability
[28] = Stability in monkey plasma assessed as parent compound remaining measured at 15 mins by LC-MS/MS analysis; format: ADME, cell-free, Macaca mulatta; settings: rhesus monkey, read-out: Stability
[29] = Stability in monkey plasma assessed as parent compound remaining measured at 60 mins by LC-MS/MS analysis; format: ADME, cell-free, Macaca mulatta; settings: rhesus monkey, read-out: Stability
[30] = Stability in monkey plasma assessed as parent compound remaining measured at 120 mins by LC-MS/MS analysis; format: ADME, cell-free, Macaca mulatta; settings: rhesus monkey, read-out: Stability
[31] = Stability in rat plasma assessed as parent compound remaining measured at 15 mins by LC-MS/MS analysis; format: ADME, cell-free; settings: read-out: Stability
[32] = Stability in rat plasma assessed as parent compound remaining measured at 60 mins by LC-MS/MS analysis; format: ADME, cell-free; settings: read-out: Stability
[33] = Stability in mouse plasma assessed as parent compound remaining measured at 15 mins by LC-MS/MS analysis; format: ADME, cell-free; settings: read-out: Stability
[34] = Stability in mouse plasma assessed as parent compound remaining measured at 60 mins by LC-MS/MS analysis; format: ADME, cell-free; settings: read-out: Stability
[35] = Stability in human plasma assessed as half life measured upto 60 mins by LC-MS/MS analysis; format: ADME, cell-free
[36] = Stability in dog plasma assessed as half life measured upto 60 mins by LC-MS/MS analysis; format: ADME, cell-free, Canis lupus familiaris
[37] = Stability in mouse plasma assessed as half life measured upto 60 mins by LC-MS/MS analysis; format: ADME, cell-free

Sequence of Protein cereblon/Signal transducer and activator of transcription 5A/Signal transducer and activator of transcription 5B (Homo sapiens) (P42229 whole entry, looked up): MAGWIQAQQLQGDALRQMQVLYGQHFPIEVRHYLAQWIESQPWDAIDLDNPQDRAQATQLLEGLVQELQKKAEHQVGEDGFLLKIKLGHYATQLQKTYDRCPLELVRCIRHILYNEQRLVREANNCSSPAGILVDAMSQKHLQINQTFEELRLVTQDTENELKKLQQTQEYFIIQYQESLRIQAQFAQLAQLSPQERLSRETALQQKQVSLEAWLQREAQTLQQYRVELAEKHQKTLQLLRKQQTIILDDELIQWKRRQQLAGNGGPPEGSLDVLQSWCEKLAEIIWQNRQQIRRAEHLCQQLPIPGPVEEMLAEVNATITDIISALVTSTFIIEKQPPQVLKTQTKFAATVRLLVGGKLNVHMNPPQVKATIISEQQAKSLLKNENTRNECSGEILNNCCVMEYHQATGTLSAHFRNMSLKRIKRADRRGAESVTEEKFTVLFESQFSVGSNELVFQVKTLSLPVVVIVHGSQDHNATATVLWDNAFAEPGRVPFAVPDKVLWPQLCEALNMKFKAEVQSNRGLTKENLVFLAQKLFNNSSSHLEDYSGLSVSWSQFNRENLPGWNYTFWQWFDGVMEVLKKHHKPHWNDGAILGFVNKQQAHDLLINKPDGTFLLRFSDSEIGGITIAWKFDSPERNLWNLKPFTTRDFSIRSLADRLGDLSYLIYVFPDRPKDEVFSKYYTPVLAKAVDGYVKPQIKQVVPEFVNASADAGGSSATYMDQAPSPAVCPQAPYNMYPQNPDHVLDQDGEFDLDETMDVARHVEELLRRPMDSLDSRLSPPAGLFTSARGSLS
Sequence of Protein cereblon/Signal transducer and activator of transcription 5A/Signal transducer and activator of transcription 5B (Homo sapiens) (P51692 whole entry, looked up): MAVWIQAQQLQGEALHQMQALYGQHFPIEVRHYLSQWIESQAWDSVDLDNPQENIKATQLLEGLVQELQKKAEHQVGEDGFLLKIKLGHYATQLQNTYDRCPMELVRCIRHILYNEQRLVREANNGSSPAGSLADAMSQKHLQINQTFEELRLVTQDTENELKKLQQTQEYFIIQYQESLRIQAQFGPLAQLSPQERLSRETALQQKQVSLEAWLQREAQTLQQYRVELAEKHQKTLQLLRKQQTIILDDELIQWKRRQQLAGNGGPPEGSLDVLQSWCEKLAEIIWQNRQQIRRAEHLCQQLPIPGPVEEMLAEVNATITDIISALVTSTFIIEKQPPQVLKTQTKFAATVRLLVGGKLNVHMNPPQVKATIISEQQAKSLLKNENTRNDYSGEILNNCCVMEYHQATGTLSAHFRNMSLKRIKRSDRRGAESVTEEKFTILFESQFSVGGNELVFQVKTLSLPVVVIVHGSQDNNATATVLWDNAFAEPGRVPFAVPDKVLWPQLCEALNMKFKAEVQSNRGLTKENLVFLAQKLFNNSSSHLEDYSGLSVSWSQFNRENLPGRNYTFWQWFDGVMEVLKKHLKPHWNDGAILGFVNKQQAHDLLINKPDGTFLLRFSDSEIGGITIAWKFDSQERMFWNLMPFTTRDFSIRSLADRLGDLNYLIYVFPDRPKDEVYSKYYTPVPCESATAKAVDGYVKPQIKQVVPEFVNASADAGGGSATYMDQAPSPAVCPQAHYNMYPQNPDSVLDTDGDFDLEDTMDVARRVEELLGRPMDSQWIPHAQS
Sequence of Protein cereblon/Signal transducer and activator of transcription 5A/Signal transducer and activator of transcription 5B (Homo sapiens) (Q96SW2 whole entry, looked up): as the sequence (Q96SW2 whole entry partner) above
Sequence of Protein cereblon/Signal transducer and activator of transcription 4 (Homo sapiens) (Q14765 whole entry, looked up): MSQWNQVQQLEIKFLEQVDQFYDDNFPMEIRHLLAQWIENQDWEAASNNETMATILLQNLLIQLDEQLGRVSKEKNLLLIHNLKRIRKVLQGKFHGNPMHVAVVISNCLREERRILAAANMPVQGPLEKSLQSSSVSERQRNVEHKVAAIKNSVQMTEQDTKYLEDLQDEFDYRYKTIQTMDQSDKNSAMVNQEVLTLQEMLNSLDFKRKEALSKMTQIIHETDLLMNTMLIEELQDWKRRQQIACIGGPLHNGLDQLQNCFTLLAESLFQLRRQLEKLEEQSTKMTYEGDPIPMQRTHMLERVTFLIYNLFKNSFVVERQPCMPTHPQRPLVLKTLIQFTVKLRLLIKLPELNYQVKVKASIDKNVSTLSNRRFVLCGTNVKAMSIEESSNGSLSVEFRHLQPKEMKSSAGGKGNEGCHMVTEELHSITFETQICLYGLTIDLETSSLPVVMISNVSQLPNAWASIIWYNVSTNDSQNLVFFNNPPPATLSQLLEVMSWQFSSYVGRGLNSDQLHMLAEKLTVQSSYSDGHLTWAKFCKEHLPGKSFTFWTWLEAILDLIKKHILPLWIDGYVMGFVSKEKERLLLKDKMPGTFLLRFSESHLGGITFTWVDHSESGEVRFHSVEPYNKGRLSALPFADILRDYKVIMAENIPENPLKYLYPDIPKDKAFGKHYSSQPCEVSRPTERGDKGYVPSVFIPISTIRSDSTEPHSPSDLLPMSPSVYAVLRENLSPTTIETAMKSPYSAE
Sequence of Protein cereblon/Signal transducer and activator of transcription 4 (Homo sapiens) (Q96SW2 whole entry, looked up): as the sequence (Q96SW2 whole entry partner) above

CC(C)(C)[C@H](NC(=O)c1cc2cc(C(F)(F)P(=O)(O)O)ccc2s1)C(=O)N1C[C@@H](OCCCCCC#Cc2cccc3c2CN(C2CCC(=O)NC2=O)C3=O)C[C@H]1C(=O)N1CCO[C@H](c2ccccc2)C1 (stereo partly drawn)
Emax [1]: > 95% | Activity [2]: No effect | Activity [3]: inactive | DC50 [4]: 80 nM | Activity [5]: No effect | Activity [6]: No effect | Activity [7]: Dose-dependent-effect | Activity [8]: No effect | Activity [9]: 60% | Activity [10]: 59% | Activity (PBMC): inactive | Activity [11]: Active | Activity [12]: Active | Activity [13]: No effect | Activity [14]: No effect | remaining at 5 min [15]: 94% | remaining at 0.25 h [16]: 98% | remaining at 0.5 h [17]: 95% | remaining at 0.5 h [18]: 70% | remaining at 0.75 h [19]: 90% | remaining at 5 min [20]: 98% | remaining at 5 min [21]: 79% | remaining at 0.25 h [22]: 94% | remaining at 2 h [23]: 74% | remaining at 5 min [24]: 82% | remaining at 0.5 h [25]: 75% | remaining at 1 h [26]: 69% | remaining at 5 min [27]: 82% | remaining at 0.25 h [28]: 111% | remaining at 1 h [29]: 81% | remaining at 2 h [30]: 82% | remaining at 0.25 h [31]: 96% | remaining at 1 h [32]: 91% | remaining at 0.25 h [33]: 100% | remaining at 1 h [34]: 91% | half-life [35]: > 2 h | half-life [36]: > 2 h | half-life [37]: > 2 h
